Data: article PMC2911475 (Journal of molecular biology, 2009)

Target: FcsSBP (Fucose Solute Binding Protein)
Experiment: isothermal titration calorimetry
Parameters: species or system Streptococcus pneumoniae
Settings: 50 mM Tris HCl pH 7.5, 25 °C, one-site model

Compound: CC(=O)N[C@H]1[C@@H](O[C@H]2[C@@H](O)[C@@H](CO)OC(O)[C@@H]2O[C@@H]2O[C@@H](C)[C@@H](O)[C@@H](O)[C@@H]2O)O[C@H](CO)[C@H](O)[C@@H]1O (some centres unmarked) [A-trisaccharide, GalNAcα1–3(Fucα1–2)Gal]
- Ka (crystal structure of SeMet protein): 1.01 (±0.16) × 10^6

Compound: C[C@@H]1O[C@@H](O[C@H]2C(O)O[C@H](CO)[C@H](O)[C@@H]2O[C@H]2O[C@H](CO)[C@H](O)[C@H](O)[C@H]2O)[C@@H](O)[C@H](O)[C@@H]1O (some centres unmarked) [B-trisaccharide, Galα1–3(Fucα1–2)Gal]
- Ka: 1.15 (±0.27) × 10^6
